Experimental data reported in patent US10513519B2, “Solid forms of (1S,4S)-4-(2-(((3S,4R)-3-fluorotetrahydro-2H-pyran-4-yl)amino)-8-((2,4,6-trichlorophenyl)amino)-9H-purin-9-yl)-1-methylcyclohexane-1-carboxamide and methods of their use” (Signal Pharmaceuticals, LLC, priority 2016, dated 2019).

Tested on: cancer cell lines
Test: Multiplexed cytotoxicity assay: cell proliferation (relative cell count IC50, GI50)
Format: cell-based
Description: (§1) Cells are grown in RPMI1640, 10% FBS, 2 mM L-alanyl-L-Glutamine, 1 mM Na pyruvate or a special medium in a humidified atmosphere of 5% CO2 at 37° C. Cells are seeded into 384-well plates and incubated in a humidified atmosphere of 5% CO2 at 37° C. Compounds are added 24 h post cell seeding. At the same time, a time zero untreated cell plate is generated. After a 72 hour incubation period, cells are fixed and stained with fluorescently labeled antibodies and nuclear dye to allow visualization of nuclei, apoptotic cells and mitotic cells. Apoptotic cells are detected using an anti-active caspase-3 antibody. Mitotic cells are detected using an anti phospho-histone-3 antibody. Compounds are serially diluted 3.16-fold and assayed over 10 concentrations in a final assay concentration of 0.1% DMSO from the highest test concentration of 10 μM. Automated fluorescence microscopy was carried out using a Molecular Devices ImageXpress Micro XL high-content imager, and images are collected with a 4× objective.
(§2) Sixteen-bit TIFF images are acquired and analyzed with MetaXpress 5.1.0.41 software. Cell proliferation is measured by the signal intensity of the incorporated nuclear dye. The cell proliferation assay output is referred to as the relative cell count. To determine the cell proliferation end point, the cell proliferation data output is transformed to percentage of control (POC) using the following formula: POC=relative cell count(compound wells)/relative cell count(vehicle wells)×100
(§3) GI50 is the concentration needed to reduce the observed growth by half. This is the concentration that inhibits the growth to the level midway between growth in untreated cells and the number of cells seeded in the well (Time zero value). The IC50 values are calculated using nonlinear regression to fit data to a sigmoidal 4 point, 4 parameter One-Site dose response model, where: y(fit)=A+[(B−A)/(1+((C/x)^D))].
as §1, with “In another experiment, cells were grown” for “Cells are grown”, “Cells were” for “Cells are”, “Compounds were” for “Compounds are”, “plate was” for “plate is”, “cells were” for “cells are”, “images were” for “images are”
as §2, with “images were” for “images are”, “proliferation was” for “proliferation is”, “output was” for “output is”
as §3, with “GI50 refers to” for “GI50 is”, “This corresponds to” for “This is”, “values were” for “values are”

[1] = Homo sapiens, SK-N-AS, 72 h, SKNAS, CNS, Neuroblastoma
[2] = Homo sapiens, SK-N-DZ, 72 h, SKNDZ, CNS, Neuroblastoma
[3] = Homo sapiens, SK-N-FI, 72 h, SKNFI, CNS, Neuroblastoma
[4] = Homo sapiens, SK-NEP-1, SKNEP1 (Kidney)
[5] = Homo sapiens, SK-OV-3, 72 h, SKOV3, Female GU, Ovary, 72 h
[6] = Homo sapiens, SK-UT-1, 72 h, SKUT1, Soft Tissue, Sarcoma, 72 h
[7] = Homo sapiens, SNB-19, SNB19 (CNS, Glioma)
[8] = Homo sapiens, SNU1, 72 h, SNU1, Stomach, 72 h
[9] = Homo sapiens, SNU-5, 72 h, SNU5, Stomach, 72 h
[10] = Homo sapiens, SNU-16, 72 h, SNU16, Stomach, 72 h
[11] = Homo sapiens, SNU-423, SNU423 (Liver)
[12] = Homo sapiens, SNU-C2B, SNUC2B (Colon)
[13] = Homo sapiens, ST486, ST486 (Hematopoietic and lymphoid, Lymphoma)
[14] = Homo sapiens, SU-DHL10, SUDHL10 (Hematopoietic and lymphoid, Lymphoma)
[15] = Homo sapiens, SU-DHL-4, SUDHL4 (Hematopoietic and lymphoid, Lymphoma)
[16] = Homo sapiens, SU-DHL-5, SUDHL5 (Hematopoietic and lymphoid, Lymphoma)
[17] = Homo sapiens, SU-DHL-8, SUDHL8 (Hematopoietic and lymphoid, Lymphoma)
[18] = Homo sapiens, SU.86.86, 72 h, SU8686, Pancreas, 72 h
[19] = Homo sapiens, SUP-T1, SUPT1 (Hematopoietic and lymphoid, Lymphoma)
[20] = Homo sapiens, SW13, SW13 (Endocrine, Adrenal gland)
[21] = Homo sapiens, SW48, SW48 (Colon)
[22] = Homo sapiens, SW480, SW480 (Colon)
[23] = Homo sapiens, SW684, 72 h, SW684, Soft Tissue, Sarcoma, 72 h
[24] = Homo sapiens, SW837, SW837 (Colon)
[25] = Homo sapiens, SW872, 72 h, SW872, Soft Tissue, Sarcoma, 72 h
[26] = Homo sapiens, SW900, 72 h, SW900, Lung, SCLC, 72 h
[27] = Homo sapiens, SW948, SW948 (Colon)
[28] = Homo sapiens, SW 954, 72 h, SW954, Female GU, Vulva, 72 h
[29] = Homo sapiens, SW 962, 72 h, SW962, Female GU, Vulva, 72 h
[30] = Homo sapiens, SW982, 72 h, SW982, Soft Tissue, Sarcoma, 72 h
[31] = Homo sapiens, SW1088, SW1088 (CNS, Glioma)
[32] = Homo sapiens, SW1353, 72 h, SW1353, Soft Tissue, Osteosarcoma, 72 h
[33] = Homo sapiens, SW1417, SW1417 (Colon)
[34] = Homo sapiens, SW1463, SW1463 (Colon)
[35] = Homo sapiens, SW1783, SW1783 (CNS, Glioma)
[36] = Homo sapiens, SW-403, SW403 (Colon)
[37] = Homo sapiens, SW-620, SW620 (Colon)
[38] = Homo sapiens, SiHa, SIHA (Female GU, Cervix)
[39] = Homo sapiens, T47D, T47D (Breast)
[40] = Homo sapiens, T98G, T98G (CNS, Glioma)
[41] = Homo sapiens, TCC-SUP, TCCSUP (Bladder)
[42] = Homo sapiens, THP-1, THP1 (Hematopoietic and lymphoid, Leukemia)
[43] = Homo sapiens, U2OS, 72 h, Soft Tissue, Osteosarcoma
[44] = Homo sapiens, U138-MG, U138MG (CNS, Glioma)
[45] = Homo sapiens, U-87 MG, U87MG (CNS, Glioma)
[46] = Homo sapiens, U-118-MG, U118MG (CNS, Glioma)
[47] = Homo sapiens, UMUC3, UMUC3 (Bladder)
[48] = Homo sapiens, WM 266-4, 72 h, WM2664, Skin, Melanoma, 72 h
[49] = Homo sapiens, WiDr, WIDR (Colon)
[50] = Homo sapiens, YAPC, 72 h, Pancreas
[51] = Homo sapiens, ZR-75-1, ZR751 (Breast)
[52] = Hs 445, HS445 (Hematopoietic and lymphoid, Lymphoma)
[53] = KG1 (Hematopoietic and lymphoid, Leukemia)
[54] = KHOS-240S, 72 h, KHOS240S, Soft Tissue, Osteosarcoma
[55] = MS751, 72 h, MS751, Female GU, Ovary, 72 h
[56] = MX1 (Hematopoietic and lymphoid, Leukemia)
[57] = NAMALWA (Hematopoietic and lymphoid, Lymphoma)
[58] = OE21, 72 h, OE21, Head and Neck, Esophageal, 72 h
[59] = RAMOSRA1 (Hematopoietic and lymphoid, Lymphoma)
[60] = SKO-007, 72 h, SKO007, Hematopoietic and lymphoid, Myeloma, 72 h
[61] = SR (Hematopoietic and lymphoid, Lymphoma)
[62] = SW579, 72 h, SW579, Endocrine, Thyroid, 72 h
[63] = TE 381.T, 72 h, TE381T, Soft Tissue, Sarcoma
[64] = TF1 (Hematopoietic and lymphoid, Leukemia)
[65] = TUR (Hematopoietic and lymphoid, Lymphoma)

C[C@]1(C(N)=O)CC[C@@H](n2c(Nc3c(Cl)cc(Cl)cc3Cl)nc3cnc(N[C@@H]4CCOC[C@H]4F)nc32)CC1 [Compound 1, cis-4-[2-{[(3S,4R)-3-fluorooxan-4-yl]amino}-8-(2,4,6-trichloroanilino)-9H-purin-9-yl]-1-methylcyclohexane-1-carboxamide]
GI50 [1]: 48.9 nM
IC50 [1]: 132 nM
GI50 [2]: 7400 nM
IC50 [2]: > 10000 nM
GI50 [3]: 15.1 nM
IC50 [3]: 135 nM
GI50 [4]: > 10000 nM
IC50 [4]: > 10000 nM
GI50 [5]: 547 nM
IC50 [5]: > 10000 nM
GI50 [6]: > 10000 nM
IC50 [6]: > 10000 nM
GI50 [7]: 163 nM
IC50 [7]: 244 nM
GI50 [8]: 35.5 nM
IC50 [8]: 63.1 nM
GI50 [9]: 36.8 nM
IC50 [9]: 94.3 nM
GI50 [10]: > 10000 nM
IC50 [10]: > 10000 nM
GI50 [11]: 192 nM
IC50 [11]: 276 nM
GI50 [12]: 54.4 nM
IC50 [12]: 722 nM
GI50 [13]: 5020 nM
IC50 [13]: 6140 nM
GI50 [14]: 1230 nM
IC50 [14]: 1400 nM
GI50 [15]: 168 nM
IC50 [15]: 332 nM
GI50 [16]: 1.1 nM
IC50 [16]: 1.3 nM
GI50 [17]: 19.3 nM
IC50 [17]: 40.6 nM
GI50 [18]: 63.5 nM
IC50 [18]: 132 nM
GI50 [19]: 19.6 nM
IC50 [19]: 46.6 nM
GI50 [20]: 71.1 nM
IC50 [20]: 135 nM
GI50 [21]: 1.8 nM
IC50 [21]: 3.1 nM
GI50 [22]: 18.4 nM
IC50 [22]: 31.1 nM
GI50 [23]: 86.9 nM
IC50 [23]: 370 nM
GI50 [24]: 172 nM
IC50 [24]: 348 nM
GI50 [25]: 105 nM
IC50 [25]: 136 nM
GI50 [26]: 21.6 nM
IC50 [26]: 39.9 nM
GI50 [27]: 195 nM
IC50 [27]: 327 nM
GI50 [28]: 114 nM
IC50 [28]: 142 nM
GI50 [29]: 82.8 nM
IC50 [29]: 232 nM
GI50 [30]: 15.6 nM
IC50 [30]: 61.4 nM
GI50 [31]: 3350 nM
IC50 [31]: 5980 nM
GI50 [32]: 184 nM
IC50 [32]: 292 nM
GI50 [33]: 8.8 nM
IC50 [33]: 35.1 nM
GI50 [34]: 135 nM
IC50 [34]: 181 nM
GI50 [35]: 5920 nM
IC50 [35]: 9850 nM
GI50 [36]: 47.6 nM
IC50 [36]: 173 nM
GI50 [37]: 49.2 nM
IC50 [37]: 79.8 nM
GI50 [38]: > 10000 nM
IC50 [38]: > 10000 nM
GI50 [39]: > 10000 nM
IC50 [39]: > 10000 nM
GI50 [40]: > 10000 nM
IC50 [40]: > 10000 nM
GI50 [41]: 2210 nM
IC50 [41]: 6590 nM
GI50 [42]: 25.1 nM
IC50 [42]: 49.5 nM
GI50 [43]: 230 nM
IC50 [43]: 373 nM
GI50 [44]: 53 nM
IC50 [44]: > 10000 nM
GI50 [45]: 69.2 nM
IC50 [45]: 101 nM
GI50 [46]: 175 nM
IC50 [46]: > 10000 nM
GI50 [47]: 149 nM
IC50 [47]: 201 nM
GI50 [48]: 12 nM
IC50 [48]: 35.4 nM
GI50 [49]: 10.4 nM
IC50 [49]: 13.3 nM
GI50 [50]: 183 nM
IC50 [50]: 670 nM
GI50 [51]: 94.3 nM
IC50 [51]: 7700 nM
GI50 [52]: 14.3 nM
IC50 [52]: 37.7 nM
GI50 (Hs766T, 72 h, Pancreas): 34.3 nM
IC50 (Hs766T, 72 h, Pancreas): 79.3 nM
GI50 (J82 (Bladder)): > 10000 nM
IC50 (J82 (Bladder)): > 10000 nM
GI50 [53]: 1.7 nM
IC50 [53]: 32.5 nM
GI50 [54]: > 10000 nM
IC50 [54]: > 10000 nM
GI50 (KPL-1, KPL1 (Breast)): > 10000 nM
IC50 (KPL-1, KPL1 (Breast)): > 10000 nM
GI50 [55]: 6910 nM
IC50 [55]: 9510 nM
GI50 (MT3 (Breast)): 674 nM
IC50 (MT3 (Breast)): 1080 nM
GI50 [56]: 40.1 nM
IC50 [56]: 61.9 nM
GI50 [57]: 18.1 nM
IC50 [57]: 23.9 nM
GI50 (OCUG-1, OCUG1 (Liver)): 464 nM
IC50 (OCUG-1, OCUG1 (Liver)): 1290 nM
GI50 [58]: 93.9 nM
IC50 [58]: 124 nM
GI50 [59]: 3660 nM
IC50 [59]: 3840 nM
GI50 (RKO (Colon)): 35.3 nM
IC50 (RKO (Colon)): 40.5 nM
GI50 (RKOAS451, RKOAS451 (Colon)): 40.5 nM
IC50 (RKOAS451, RKOAS451 (Colon)): 44.9 nM
GI50 (SH4 (Skin, Melanoma)): 20.8 nM
IC50 (SH4 (Skin, Melanoma)): 29 nM
GI50 [60]: 27.4 nM
IC50 [60]: 482 nM
GI50 [61]: 1420 nM
IC50 [61]: 1840 nM
GI50 [62]: 47.7 nM
IC50 [62]: 70.8 nM
GI50 (T24 (Bladder)): 233 nM
IC50 (T24 (Bladder)): 274 nM
GI50 [63]: 7.6 nM
IC50 [63]: 12.8 nM
GI50 [64]: 1.5 nM
IC50 [64]: 9.5 nM
GI50 [65]: 41.5 nM
IC50 [65]: 53.9 nM
GI50 (Y79 (Eye-retinoblastoma, Eye)): > 10000 nM
IC50 (Y79 (Eye-retinoblastoma, Eye)): > 10000 nM
